# Test results from patent US20230167114A1, “MACROCYCLIC JAK INHIBITOR AND USE THEREOF” (Biopolar Hongye (Guangdong) Pharmaceutical Co., Ltd., priority 2020, published 2023).
# Tests used:
# Format in all cases: biochemical
# [1] = biological target: JAK1 (Homo sapiens, UniProt P23458); assay: JAK kinase activity, homogeneous time-resolved fluorescence (JAK1 reaction system); details: ATP 2 μM, JAK1 protein 0.2 ng/μL; read-out: JAK 1 activity
# Procedure: (§1) The activity measurement method of JAK kinase was to use homogeneous time-resolved fluorescence technique. The reaction was performed in 384 shallow well plates with a total reaction volume of 10 μL. The mixture of kinase protein, compound, ATP and substrate was carried out in a reaction buffer of 50 mM Hepes (pH7.0), NaN3 0.02%, BSA 0.01%, 0.1 mM orthocanadate, 5 mM MgCl2, and 1 mM DTT. After reacting for 1 hour, antibody capable of recognizing substrate phosphorylation and dye XL-615 and detection buffer (Cisbio) containing EDTA were added to the system. The reaction signal of kinase was detected by PE company's porous plate detector. The parameter settings were excitation light at 320 nm, emission light at 615 nm and 665 nm. The activity of JAK is indirectly reflected by the signal ratio of 665 nm and 615 nm. In the reaction, the background well without enzyme and the total enzyme activity well without compound were set.
# (§2) The IC50 value of the compound inhibiting protein was obtained by the formula: Y=100/(1+10^((Log IC50−X)*HillSlope)).
# In JAK1 reaction system, the concentration of ATP was 2 μM, and the concentration of JAK1 protein was 0.2 ng/μL.
# [2] = biological target: JAK2 (Homo sapiens, UniProt O60674); assay: JAK kinase activity, homogeneous time-resolved fluorescence (JAK2 reaction system); details: ATP 2 μM, JAK2 protein 0.01 ng/μL
# Procedure: as §1, §2
# In JAK2 reaction system, the concentration of ATP was 2 μM, and the concentration of JAK2 protein was 0.01 ng/μL.
# [3] = biological target: T1, JAK3 (Homo sapiens, UniProt P52333); assay: JAK kinase activity, homogeneous time-resolved fluorescence (JAK3 reaction system); details: ATP 2 μM, JAK3 protein 0.04 ng/μL; read-out: JAK 3 activity
# T1 sequence (P52333 1-1124): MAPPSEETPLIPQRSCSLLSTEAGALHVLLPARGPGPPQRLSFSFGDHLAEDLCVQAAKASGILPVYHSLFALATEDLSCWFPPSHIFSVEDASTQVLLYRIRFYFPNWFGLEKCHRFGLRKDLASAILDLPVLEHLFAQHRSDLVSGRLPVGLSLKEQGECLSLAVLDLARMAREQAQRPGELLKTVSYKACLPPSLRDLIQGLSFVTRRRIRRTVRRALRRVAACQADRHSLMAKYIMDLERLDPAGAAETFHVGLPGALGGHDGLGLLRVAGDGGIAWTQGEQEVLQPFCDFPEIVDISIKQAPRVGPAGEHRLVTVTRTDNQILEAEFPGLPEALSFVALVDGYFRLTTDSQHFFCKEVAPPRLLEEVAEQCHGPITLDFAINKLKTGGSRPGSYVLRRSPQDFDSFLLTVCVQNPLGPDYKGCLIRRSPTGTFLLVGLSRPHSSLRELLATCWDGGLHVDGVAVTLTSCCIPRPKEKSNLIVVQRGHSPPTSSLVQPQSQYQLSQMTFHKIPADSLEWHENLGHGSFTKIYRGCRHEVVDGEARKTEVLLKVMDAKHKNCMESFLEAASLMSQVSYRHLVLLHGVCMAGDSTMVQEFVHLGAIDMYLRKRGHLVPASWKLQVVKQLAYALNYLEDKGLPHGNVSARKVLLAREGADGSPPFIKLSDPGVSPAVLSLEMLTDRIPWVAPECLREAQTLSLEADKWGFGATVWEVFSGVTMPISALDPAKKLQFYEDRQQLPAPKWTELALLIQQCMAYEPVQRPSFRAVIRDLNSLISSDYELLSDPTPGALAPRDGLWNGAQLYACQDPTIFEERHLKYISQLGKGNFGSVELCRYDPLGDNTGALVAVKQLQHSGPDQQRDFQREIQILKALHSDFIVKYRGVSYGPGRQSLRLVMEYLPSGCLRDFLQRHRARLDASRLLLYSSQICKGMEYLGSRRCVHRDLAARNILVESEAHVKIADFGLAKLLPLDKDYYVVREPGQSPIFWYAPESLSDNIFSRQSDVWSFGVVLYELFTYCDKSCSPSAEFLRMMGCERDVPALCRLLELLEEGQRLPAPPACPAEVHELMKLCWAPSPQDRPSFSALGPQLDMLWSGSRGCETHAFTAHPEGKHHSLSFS
# Procedure: as §1, §2
# In JAK3 reaction system, the concentration of ATP was 2 μM, and the concentration of JAK3 protein was 0.04 ng/μL.
# [4] = biological target: TYK2 (Homo sapiens, UniProt P29597); assay: JAK kinase activity, homogeneous time-resolved fluorescence (TYK2 reaction system); details: ATP 2 μM, TYK2 protein 0.2 ng/μL; read-out: TYK 2 activity
# Procedure: as §1, §2
# In TYK2 reaction system, the concentration of ATP was 2 μM and the concentration of TYK2 protein was 0.2 ng/μL.
# Chain of JAK1 (P23458 whole entry): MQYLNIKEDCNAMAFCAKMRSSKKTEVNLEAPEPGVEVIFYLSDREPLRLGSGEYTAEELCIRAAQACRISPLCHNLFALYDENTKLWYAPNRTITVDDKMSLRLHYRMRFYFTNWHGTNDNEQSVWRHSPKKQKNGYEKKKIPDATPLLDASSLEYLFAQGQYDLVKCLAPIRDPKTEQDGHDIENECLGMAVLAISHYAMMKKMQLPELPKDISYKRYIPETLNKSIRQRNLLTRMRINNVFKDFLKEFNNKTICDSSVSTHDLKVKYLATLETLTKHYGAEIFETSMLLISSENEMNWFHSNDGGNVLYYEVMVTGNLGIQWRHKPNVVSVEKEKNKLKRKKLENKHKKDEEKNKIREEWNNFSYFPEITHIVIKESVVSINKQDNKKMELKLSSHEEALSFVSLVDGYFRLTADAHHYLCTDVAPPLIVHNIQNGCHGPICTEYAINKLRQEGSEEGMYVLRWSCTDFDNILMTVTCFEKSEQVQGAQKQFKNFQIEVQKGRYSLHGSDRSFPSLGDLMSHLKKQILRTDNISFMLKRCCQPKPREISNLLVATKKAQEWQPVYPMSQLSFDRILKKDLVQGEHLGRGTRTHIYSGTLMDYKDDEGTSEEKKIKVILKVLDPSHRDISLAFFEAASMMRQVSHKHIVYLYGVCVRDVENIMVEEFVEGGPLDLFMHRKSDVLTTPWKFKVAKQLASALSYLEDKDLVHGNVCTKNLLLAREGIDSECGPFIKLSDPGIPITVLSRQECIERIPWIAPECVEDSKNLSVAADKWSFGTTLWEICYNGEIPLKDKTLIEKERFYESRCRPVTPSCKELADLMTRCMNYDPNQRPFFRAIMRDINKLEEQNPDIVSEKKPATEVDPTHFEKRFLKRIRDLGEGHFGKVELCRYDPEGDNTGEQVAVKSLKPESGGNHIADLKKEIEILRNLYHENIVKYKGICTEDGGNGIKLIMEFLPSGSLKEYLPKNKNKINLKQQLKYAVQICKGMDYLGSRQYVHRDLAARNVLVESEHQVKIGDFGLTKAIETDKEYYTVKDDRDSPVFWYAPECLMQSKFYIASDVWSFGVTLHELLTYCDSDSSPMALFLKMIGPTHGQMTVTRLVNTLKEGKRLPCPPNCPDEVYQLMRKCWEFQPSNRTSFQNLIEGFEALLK
# Chain of JAK2 (O60674 whole entry): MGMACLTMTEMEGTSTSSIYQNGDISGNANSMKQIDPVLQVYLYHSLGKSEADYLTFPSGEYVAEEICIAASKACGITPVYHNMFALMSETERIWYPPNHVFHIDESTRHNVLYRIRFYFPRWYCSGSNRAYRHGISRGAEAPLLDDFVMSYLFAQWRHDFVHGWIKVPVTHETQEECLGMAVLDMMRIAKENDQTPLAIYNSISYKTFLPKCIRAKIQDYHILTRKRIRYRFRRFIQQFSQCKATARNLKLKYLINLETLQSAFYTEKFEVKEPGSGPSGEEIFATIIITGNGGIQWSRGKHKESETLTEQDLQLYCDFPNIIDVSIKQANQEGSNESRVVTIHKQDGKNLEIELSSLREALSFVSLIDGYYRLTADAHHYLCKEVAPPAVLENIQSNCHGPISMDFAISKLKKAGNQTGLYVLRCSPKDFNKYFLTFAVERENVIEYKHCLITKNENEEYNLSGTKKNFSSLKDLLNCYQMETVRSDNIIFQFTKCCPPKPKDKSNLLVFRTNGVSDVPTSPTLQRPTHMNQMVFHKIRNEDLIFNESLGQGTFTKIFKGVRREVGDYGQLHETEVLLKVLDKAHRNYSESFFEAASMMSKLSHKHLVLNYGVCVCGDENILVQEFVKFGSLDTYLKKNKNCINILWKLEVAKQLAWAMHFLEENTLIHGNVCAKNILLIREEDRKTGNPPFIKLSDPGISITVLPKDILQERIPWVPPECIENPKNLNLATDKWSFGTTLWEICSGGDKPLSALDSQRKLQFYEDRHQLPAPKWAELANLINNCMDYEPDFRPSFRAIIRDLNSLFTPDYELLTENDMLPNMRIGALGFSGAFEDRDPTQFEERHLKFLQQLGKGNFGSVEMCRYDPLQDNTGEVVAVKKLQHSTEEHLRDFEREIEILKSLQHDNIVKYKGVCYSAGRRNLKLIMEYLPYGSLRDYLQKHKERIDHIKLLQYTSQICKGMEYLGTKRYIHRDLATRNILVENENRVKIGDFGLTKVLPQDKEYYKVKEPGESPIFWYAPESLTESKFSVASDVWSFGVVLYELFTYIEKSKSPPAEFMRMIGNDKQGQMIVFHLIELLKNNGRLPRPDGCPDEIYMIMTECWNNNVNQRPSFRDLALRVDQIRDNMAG
# Chain of TYK2 (P29597 whole entry): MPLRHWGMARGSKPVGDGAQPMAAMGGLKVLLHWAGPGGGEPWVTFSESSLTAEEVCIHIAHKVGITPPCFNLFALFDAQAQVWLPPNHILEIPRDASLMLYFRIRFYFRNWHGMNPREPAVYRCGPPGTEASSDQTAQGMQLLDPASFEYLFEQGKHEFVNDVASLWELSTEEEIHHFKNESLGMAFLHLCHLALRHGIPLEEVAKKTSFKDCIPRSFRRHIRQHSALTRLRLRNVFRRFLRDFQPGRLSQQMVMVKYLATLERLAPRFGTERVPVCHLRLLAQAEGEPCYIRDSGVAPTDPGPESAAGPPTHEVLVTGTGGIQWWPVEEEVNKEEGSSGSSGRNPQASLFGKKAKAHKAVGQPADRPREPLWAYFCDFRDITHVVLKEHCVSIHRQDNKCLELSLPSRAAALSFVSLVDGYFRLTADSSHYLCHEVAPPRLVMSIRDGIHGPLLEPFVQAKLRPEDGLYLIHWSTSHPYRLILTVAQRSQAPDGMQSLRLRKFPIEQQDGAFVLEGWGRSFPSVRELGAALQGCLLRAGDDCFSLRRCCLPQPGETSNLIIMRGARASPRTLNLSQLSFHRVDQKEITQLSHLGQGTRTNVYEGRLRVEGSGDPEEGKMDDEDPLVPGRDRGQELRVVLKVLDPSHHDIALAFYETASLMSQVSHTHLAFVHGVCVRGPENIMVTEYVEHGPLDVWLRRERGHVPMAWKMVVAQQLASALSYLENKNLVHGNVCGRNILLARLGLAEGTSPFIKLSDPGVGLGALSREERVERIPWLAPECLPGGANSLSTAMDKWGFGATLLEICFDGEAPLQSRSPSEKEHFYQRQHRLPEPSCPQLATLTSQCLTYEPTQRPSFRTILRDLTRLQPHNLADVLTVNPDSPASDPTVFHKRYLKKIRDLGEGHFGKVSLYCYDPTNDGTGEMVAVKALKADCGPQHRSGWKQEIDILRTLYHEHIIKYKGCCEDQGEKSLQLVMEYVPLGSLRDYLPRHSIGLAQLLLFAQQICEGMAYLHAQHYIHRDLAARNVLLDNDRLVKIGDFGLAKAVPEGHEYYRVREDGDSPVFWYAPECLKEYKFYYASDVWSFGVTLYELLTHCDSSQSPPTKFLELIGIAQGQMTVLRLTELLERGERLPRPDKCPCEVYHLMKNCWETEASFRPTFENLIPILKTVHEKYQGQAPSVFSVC
IC50 [1],IC50 [2],IC50 [3],IC50 [4],Structure (SMILES)
1000 to 10000 nM,1000 to 10000 nM,> 10000 nM,> 10000 nM,"CCNc1cc2ccc1C(=O)NCCCCCNc1nc(ncc1C)Nc1cc-2cnc1F [Compound 44, 1^3-(ethylamino)-2^6-difluoro-4^5-methyl-3,5,11-triaza-4(2,4)-pyrimidina-2(3,5)-pyridina-1(1,4)-benzenacyclododecaphan-12-one]"
11 to 100 nM,11 to 100 nM,101 to 1000 nM,1000 to 10000 nM,"Cc1cnc2nc1Nc1cc(ccc1F)CCCNC(=O)c1ncc(cc1F)-c1cnc(F)c(c1)N2 [Compound 45, 1^3,2^6,6^6-trifluoro-4^5-methyl-3,5,10-triaza-4(2,4)-pyrimidina-1(5,2),2(3,5)-bipyridina-6(1,3)-benzenacycloundecaphan-11-one]"
< 10 nM,< 10 nM,< 10 nM,11 to 100 nM,"Cc1cnc2nc1Nc1cccc(c1)CCNC(=O)c1ccc(cc1)-c1cnc(F)c(c1)N2 [Compound 22, 2^6-fluoro-4^5-methyl-3,5,9-triaza-4(2,4)-pyrimidina-2(3,5)-pyridina-1(1,4),6(1,3)-dibenzenacyclodecaphan-10-one]"
< 10 nM,< 10 nM,11 to 100 nM,101 to 1000 nM,"Cc1cnc2nc1Nc1cccc(c1)CCCNC(=O)c1ccc(cc1[N+](=O)[O-])-c1cnc(F)c(c1)N2 [Compound 38, 2^6-fluoro-4^5-methyl-1^3-nitro-3,5,10-triaza-4(2,4)-pyrimidina-2(3,5)-pyridina-1(1,4),6(1,3)-dibenzenacycloundecaphan-11-one]"
101 to 1000 nM,101 to 1000 nM,101 to 1000 nM,> 10000 nM,"CC(=O)Nc1cc2ccc1C(=O)NCCCCCNc1nc(ncc1C)Nc1cc-2cnc1F [Compound 43, N-(2^6-fluoro-4^5-methyl-12-oxo-3,5,11-triaza-4(2,4)-pyrimidina-2(3,5)-pyridina-1(l,4)-benzenacyclododecaphane-1^3-yl) acetamide]"

# Further lines, the compound ahead of its results:
Structure (SMILES),IC50 [1],IC50 [2],IC50 [3],IC50 [4]
"COC(=O)c1cc2ccc1C(=O)NCCCCCNc1nc(ncc1C)Nc1cc-2cnc1F [Compound 19, methyl 2^6-fluoro-4^5-methyl-12-oxo-3,5,11-triaza-4(2,4)-pyrimidina-2(3,5)-pyridina-1(1,4)-benzenacyclododecaphane-1^3-carboxylate]",101 to 1000 nM,101 to 1000 nM,1000 to 10000 nM,> 10000 nM
Cc1cnc2nc1NCCCCCNC(=O)c1ccc(cc1C(=O)O)-c1cnc(F)c(c1)N2 [Compound 21],101 to 1000 nM,11 to 100 nM,101 to 1000 nM,1000 to 10000 nM
"Cc1cnc2nc1NCCCCCCC(=O)N1CCN(CC1)c1cnc(F)c(c1)N2 [Compound 2, 2^6-fluoro-4^5-methyl-3,5-diaza-4(2,4)-pyrimidina-1(1,4)-piperazina-2(3,5)-pyridinacyclododecaphan-12-one]",101 to 1000 nM,101 to 1000 nM,1000 to 10000 nM,1000 to 10000 nM
"Cc1cnc2nc1NCCCCCNC(=O)c1ccc(cc1F)-c1cnc(F)c(c1)N2 [Compound 6, 1^3,2^6-difluoro-4^5-methyl-3,5,11-triaza-4(2,4)-pyrimidina-2(3,5)-pyridina-1(1,4)-benzenacyclododecaphan-12-one]",11 to 100 nM,101 to 1000 nM,101 to 1000 nM,1000 to 10000 nM
"O=C1NCCCCCNc2nc(ncc2F)Nc2cc(cnc2F)-c2ccc1cc2 [Compound 4, 2^6,4^5-difluoro-3,5,11-triaza-4(2,4)-pyrimidina-2(3,5)-pyridina-1(1,4)-benzenacyclododecaphan-12-one]",1000 to 10000 nM,101 to 1000 nM,1000 to 10000 nM,> 10000 nM
"Cc1cnc2nc1NCCCCCNC(=O)c1ccc(c(F)c1)-c1cnc(F)c(c1)N2 [Compound 3, 1^2,2^6-difluoro-4^5-methyl-3,5,11-triaza-4(2,4)-pyrimidina-2(3,5)-pyridina-1(1,4)-benzenacyclododecaphan-12-one]",11 to 100 nM,11 to 100 nM,101 to 1000 nM,1000 to 10000 nM
"Cc1cnc2nc1NCCCCCNC(=O)c1ccc(cc1)-c1cnc(F)c(c1)N2 [Compound 1, 2^6-fluoro-4^5-methyl-3,5,11-triaza-4 (2,4)-pyrimidina-2(3,5)-pyridina-1(1,4)-benzenacyclododecaphan-12-one]",101 to 1000 nM,1000 to 10000 nM,1000 to 10000 nM,> 10000 nM
"Cc1cnc2nc1NCCCCNC(=O)c1ccc(cc1F)-c1cnc(F)c(c1)N2 [Compound 7, 1^2,2^6-difluoro-4^5-methyl-3,5,10-triaza-4(2,4)-pyrimidina-2(3,5)-pyridina-1(1,4)-benzenacycloundecaphan-11-one]",11 to 100 nM,101 to 1000 nM,1000 to 10000 nM,1000 to 10000 nM
